# Laboratory results taken from patent US10556888B2, “Pyrazole compounds or salts thereof, preparation methods therefor, herbicidal compositions and use thereof” (QINGDAO KINGAGROOT CHEMICAL COMPOUNDS CO., LTD, priority 2015, dated 2020).
# What was measured:
# [1] = test system: Monocotyledonous and dicotyledonous weed; test: Post-emergence test experiment, weed control effect (Table 2); type: in vivo; set-up: key to weed control effect, Setaria viridis (level) / weed control effect, Rorippa indica (level) / weed control effect, Abutilon theophrasti (level) / weed control effect, Echinochloa crus-galli (level) / weed control effect, Digitaria sanguinalis (level): Level 10: completely dead; Level 9: above 90% growth inhibition rate; Level 8: above 80% growth inhibition rate; Level 7: above 70% growth inhibition rate; Level 6: above 60% growth inhibition rate; Level 5: above 50% growth inhibition rate; Level 4: above 30% growth inhibition rate; Level 3: above 20% growth inhibition rate; Level 2: above 10% growth inhibition rate; Level 1: above 1-10% growth inhibition rate; Level 0: no effect; conditions: 3 weeks after spraying, greenhouse
# Protocol: (§1) Post-emergence test experiment: Monocotyledonous and dicotyledonous weed seeds and main crop seeds (i.e. wheat, corn, rice, soybean, cotton, oilseed, millet and sorghum.) were put into a plastic pot loaded with soil. Then covered with 0.5-2 cm soil, the seeds were allowed to grow in good greenhouse environment. The test plants were treated at 2-3 leaf stage 2-3 weeks after sowing. The test compounds of the invention were dissolved with acetone respectively, then added with 80 tween and diluted by certain amount of water to certain concentration. The solution was sprayed to the plants with a sprayer. Then the plants were cultured for 3 weeks in the greenhouse.
# [2] = test system: main crop (wheat, corn, rice, soybean, cotton, oilseed, millet and sorghum); test: Post-emergence test experiment, main crops (Table 2); type: in vivo; set-up: key: Level 10: completely dead; Level 9: above 90% growth inhibition rate; Level 8: above 80% growth inhibition rate; Level 7: above 70% growth inhibition rate; Level 6: above 60% growth inhibition rate; Level 5: above 50% growth inhibition rate; Level 4: above 30% growth inhibition rate; Level 3: above 20% growth inhibition rate; Level 2: above 10% growth inhibition rate; Level 1: above 1-10% growth inhibition rate; Level 0: no effect; conditions: 3 weeks after spraying, greenhouse
# Protocol: as §1
SMILES,"weed control effect, Abutilon theophrasti (level) ([1]; 120 g/ha)","weed control effect, Bidens pilosa (level) ([1]; 120 g/ha)","weed control effect, Digitaria sanguinalis (level) ([1]; 120 g/ha)","weed control effect, Echinochloa crus-galli (level) ([1]; 120 g/ha)","weed control effect, Rorippa indica (level) ([1]; 120 g/ha)","weed control effect, Setaria viridis (level) ([1]; 120 g/ha)","effect on crop, corn (level) ([2]; 120 g/ha)","effect on crop, rice (level) ([2]; 120 g/ha)","effect on crop, wheat (level) ([2]; 120 g/ha)","weed control effect, Abutilon theophrasti (level) ([1]; 30 g/ha)","weed control effect, Bidens pilosa (level) ([1]; 30 g/ha)","weed control effect, Digitaria sanguinalis (level) ([1]; 30 g/ha)","weed control effect, Echinochloa crus-galli (level) ([1]; 30 g/ha)","weed control effect, Rorippa indica (level) ([1]; 30 g/ha)","weed control effect, Setaria viridis (level) ([1]; 30 g/ha)","effect on crop, corn (level) ([2]; 30 g/ha)","effect on crop, rice (level) ([2]; 30 g/ha)","effect on crop, wheat (level) ([2]; 30 g/ha)",other results
Cc1cnn(Cc2c(S(C)(=O)=O)ccc(C(=O)c3cnn(C)c3OC(=O)c3cnn(C)c3)c2Cl)c1 [Compound 17],6 (Level 6: above 60% growth inhibition rate),6 (Level 6: above 60% growth inhibition rate),0,10,4 (Level 4: above 30% growth inhibition rate),1 (Level 1: above 1-10% growth inhibition rate),0,0,0,,,,,,,,,,
Cn1cc(C(=O)Oc2c(C(=O)c3ccc(S(C)(=O)=O)c(Cn4cc(Cl)cn4)c3Cl)c(C3CC3)nn2C)cn1 [Compound 18],9 (Level 9: above 90% growth inhibition rate),8 (Level 8: above 80% growth inhibition rate),4 (Level 4: above 30% growth inhibition rate),10,10,5 (Level 5: above 50% growth inhibition rate),0,1 (Level 1: above 1-10% growth inhibition rate),0,,,,,,,,,,
Cn1cc(C(=O)Oc2c(C(=O)c3ccc(S(C)(=O)=O)c(Cn4cccn4)c3Cl)c(C3CC3)nn2C)cn1 [Compound 19],,,,,,,,,,,,,,,,,,,"weed control effect, Abutilon theophrasti (level) ([1]; 60 g/ha): 10; weed control effect, Bidens pilosa (level) ([1]; 60 g/ha): 8 (Level 8: above 80% growth inhibition rate); weed control effect, Digitaria sanguinalis (level) ([1]; 60 g/ha): 10; weed control effect, Echinochloa crus-galli (level) ([1]; 60 g/ha): 10; weed control effect, Rorippa indica (level) ([1]; 60 g/ha): 10; weed control effect, Setaria viridis (level) ([1]; 60 g/ha): 8 (Level 8: above 80% growth inhibition rate); effect on crop, corn (level) ([2]; 60 g/ha): 0; effect on crop, rice (level) ([2]; 60 g/ha): 1 (Level 1: above 1-10% growth inhibition rate); effect on crop, wheat (level) ([2]; 60 g/ha): 0"
Cc1cc(C)n(Cc2c(S(C)(=O)=O)ccc(C(=O)c3c(C4CC4)nn(C)c3OC(=O)c3cnn(C)c3)c2Cl)n1 [Compound 20],6 (Level 6: above 60% growth inhibition rate),6 (Level 6: above 60% growth inhibition rate),1 (Level 1: above 1-10% growth inhibition rate),10,4 (Level 4: above 30% growth inhibition rate),5 (Level 5: above 50% growth inhibition rate),0,0,0,,,,,,,,,,
Cc1ccn(Cc2c(S(C)(=O)=O)ccc(C(=O)c3c(C4CC4)nn(C)c3OC(=O)c3cnn(C)c3)c2Cl)n1 [Compound 21],6 (Level 6: above 60% growth inhibition rate),6 (Level 6: above 60% growth inhibition rate),1 (Level 1: above 1-10% growth inhibition rate),10,4 (Level 4: above 30% growth inhibition rate),3 (Level 3: above 20% growth inhibition rate),0,0,0,,,,,,,,,,
Cc1cnn(Cc2c(S(C)(=O)=O)ccc(C(=O)c3c(C4CC4)nn(C)c3OC(=O)c3cnn(C)c3)c2Cl)c1 [Compound 22],6 (Level 6: above 60% growth inhibition rate),6 (Level 6: above 60% growth inhibition rate),1 (Level 1: above 1-10% growth inhibition rate),10,4 (Level 4: above 30% growth inhibition rate),3 (Level 3: above 20% growth inhibition rate),0,0,0,,,,,,,,,,
CCOc1c(C(=O)Oc2c(C(=O)c3ccc(S(C)(=O)=O)c(Cn4cc(C)cn4)c3Cl)cnn2C)cnn1C [Compound 23],6 (Level 6: above 60% growth inhibition rate),6 (Level 6: above 60% growth inhibition rate),1 (Level 1: above 1-10% growth inhibition rate),10,4 (Level 4: above 30% growth inhibition rate),3 (Level 3: above 20% growth inhibition rate),0,0,0,,,,,,,,,,
Cc1nn(C)cc1C(=O)Oc1c(C(=O)c2ccc(S(C)(=O)=O)c(COCC(F)F)c2Cl)c(C)nn1C [Compound 25],,,,,,,,,,7 (Level 7: above 70% growth inhibition rate),7 (Level 7: above 70% growth inhibition rate),10,10,5 (Level 5: above 50% growth inhibition rate),9 (Level 9: above 90% growth inhibition rate),0,6 (Level 6: above 60% growth inhibition rate),0,
CCOCc1c(S(C)(=O)=O)ccc(C(=O)c2c(C)nn(C)c2OC(=O)c2cn(C)nc2C)c1Cl [Compound 27],,,,,,,,,,7 (Level 7: above 70% growth inhibition rate),7 (Level 7: above 70% growth inhibition rate),7 (Level 7: above 70% growth inhibition rate),9 (Level 9: above 90% growth inhibition rate),5 (Level 5: above 50% growth inhibition rate),6 (Level 6: above 60% growth inhibition rate),0,6 (Level 6: above 60% growth inhibition rate),0,
COCCOCc1c(S(C)(=O)=O)ccc(C(=O)c2c(C)nn(C)c2OC(=O)c2cn(C)nc2C)c1Cl [Compound 28],,,,,,,,,,7 (Level 7: above 70% growth inhibition rate),7 (Level 7: above 70% growth inhibition rate),7 (Level 7: above 70% growth inhibition rate),9 (Level 9: above 90% growth inhibition rate),5 (Level 5: above 50% growth inhibition rate),5 (Level 5: above 50% growth inhibition rate),0,6 (Level 6: above 60% growth inhibition rate),0,
CCc1nn(C)c(OC(=O)c2cn(C)nc2C)c1C(=O)c1ccc(S(C)(=O)=O)c(Cn2nc(C)cc2C)c1Cl [Compound 30],6 (Level 6: above 60% growth inhibition rate),6 (Level 6: above 60% growth inhibition rate),4 (Level 4: above 30% growth inhibition rate),8 (Level 8: above 80% growth inhibition rate),4 (Level 4: above 30% growth inhibition rate),10,0,0,0,,,,,,,,,,
CCOCc1c(S(C)(=O)=O)ccc(C(=O)c2c(CC)nn(C)c2OC(=O)c2cn(C)nc2C)c1Cl [Compound 31],,,,,,,,,,7 (Level 7: above 70% growth inhibition rate),7 (Level 7: above 70% growth inhibition rate),10,10,5 (Level 5: above 50% growth inhibition rate),9 (Level 9: above 90% growth inhibition rate),0,5 (Level 5: above 50% growth inhibition rate),0,
CCc1nn(C)c(OC(=O)c2cn(C)nc2C)c1C(=O)c1ccc(S(C)(=O)=O)c(COCC(F)(F)F)c1Cl [Compound 32],,,,,,,,,,7 (Level 7: above 70% growth inhibition rate),7 (Level 7: above 70% growth inhibition rate),10,10,5 (Level 5: above 50% growth inhibition rate),10,1 (Level 1: above 1-10% growth inhibition rate),5 (Level 5: above 50% growth inhibition rate),0,
